From patent publication US20260234144A1 (TAY THERAPEUTICS LIMITED, priority 2023, published 2026)

Tested on: R223X stop codon in the mutated luciferase gene, ADXC8 luciferase reporter cell line
Assay: cells
Format: cell-based
Details: ADXC8 cells, 24 hours; for Emax / EC (100% of 200 uM G418 response): 24 h; for Emax: read-out: Fold Over Control, maximum fold response relative to 200 μM G418; for EC (100% of 200 uM G418 response): read-out: pC100%, negative logarithm of the concentration giving the same response as 200 μM G418; for Fold Over Control: maximum fold response relative to 200 μM G418; for pC100%: negative logarithm of the concentration giving the same response as 200 μM G418

Structure (SMILES)	Emax [%]	EC (100% of 200 uM G418 response) [µM]	Fold Over Control	pC100%
CN1CCC(Nc2nc(N)c3ccc(-c4ccc(C(=O)O)cc4)nc3n2)CC1 [Example 84]	0 to 100	> 100		
CN1CCC(Nc2nc(N)c3ccc(-c4cccc(N)c4)nc3n2)CC1 [Example 93]	100 to 3000	10 to 100		
Cc1cc(C)c2c(N)nc(NC3CC4CC[C@@H](C3)N4C(=O)OC(C)(C)C)nc2n1 (stereo partly drawn) [Example 137]	100 to 3000	10 to 100		
CC(=O)Nc1cccc(-c2ccc3c(N)nc(NC4CCN(C)CC4)nc3n2)c1 [Example 64]	0 to 100	> 100		
Cc1c2c(nc3nc(N[C@@H]4CCCNC4)nc(N)c13)CCC2 [Example 581]	100 to 3000	0.01 to 0.1		
CN(C)Cc1ccccc1-c1ccc2c(N)nc(NC3CCN(C)CC3)nc2n1 [Example 59]	0 to 100	> 100		
Cc1cc(-c2ccccc2)nc2nc(N[C@@H]3CCNC3)nc(N)c12 [Example 301]		1 to 10		
Cc1cc(C)c2c(N)nc(NCCCN3Cc4ccccc4C3)nc2n1 [Example 194]	100 to 3000	10 to 100		
Cc1cc(C)c2c(N)nc(NC3CCN(Cc4ccc(C#N)cc4O)CC3)nc2n1 [Example 567]	100 to 3000	0.1 to 1		
Cc1cc(C(C)C)nc2nc(NC3CCN(C)CC3)nc(N)c12 [Example 602]		1 to 10		
CN1CCC(Nc2nc(N)c3cc(Br)cnc3n2)CC1 [Example 20, 6-bromo-N^2-(1-methylpiperidin-4-yl)pyrido[2,3-d]pyrimidine-2,4-diamine]	100 to 3000	10 to 100		
Cc1cc(C)c2c(N)nc(N[C@H]3CN(C)C[C@@H]3O)nc2n1 [Example 226, (3S,4S)-4-((4-amino-5,7-dimethylpyrido[2,3-d]pyrimidin-2-yl)amino)-1-methylpyrrolidin-3-ol]	100 to 3000	0.1 to 1		
COc1ccc(CNc2ccnc3nc(NC4CCN(C)CC4)nc(N)c23)cc1 [Example 298]	0 to 100	> 100		
CCNc1nc(N[C@H]2CN(C)C[C@@H]2F)nc2nc(C)cc(C)c12 [Example 393]	100 to 3000	1 to 10		
Cc1cc(C)c2c(N)nc(N[C@@H]3CCNC[C@@H]3F)nc2n1 [Example 586]		1 to 10		
CNc1nc(N[C@H]2CN(C)C[C@@H]2O)nc2nc(C)c(Br)c(C)c12 [Example 615]		1 to 10		
COc1cc(C)nc2nc(N[C@@H]3CCN(C)C3)nc(N)c12 [Example 525, (R)-5-methoxy-7-methyl-N^2-(1-methylpyrrolidin-3-yl)pyrido[2,3-d]pyrimidine-2,4-diamine]	100 to 3000	10 to 100		
CNc1nc(NC2(CO)CCNC2)nc2nc(C)cc(C)c12 (single isomer, unassigned) [Example 440]			# (Fold over Ctrl ≥ 0 ≤ 1)	* (pC100 ≤ 4.5)
CN1CCC(Nc2nc(N)c3cc(-c4cnn(C)c4)cnc3n2)CC1 [Example 679]	0 to 100	> 100		

Structure (SMILES)	Emax [%]	EC (100% of 200 uM G418 response) [µM]	Fold Over Control	pC100%
CN1CCC(Nc2nc(N)c3ccc(-c4ccccc4S(C)(=O)=O)nc3n2)CC1 [Example 116]	0 to 100	> 100		
CNc1cc(N[C@@H]2CCN(C)C2)nc2nc(C)cc(C)c12 [Example 515, (R)—N^4,5,7-trimethyl-N^2-(1-methylpyrrolidin-3-yl)-1,8-naphthyridine-2,4-diamine]	100 to 3000	1 to 10		
Cc1nc2nc(NC3CCN(Cc4ccc(C#N)cc4)CC3)nc(N)c2c2c1CCC2 [Example 554]	100 to 3000	0.1 to 1		
Cc1cc(C)c2c(N)nc(NC3CCN(Cc4nnc[nH]4)CC3)nc2n1 [Example 483]	0 to 100	> 31.6		
Cc1cc(C)c2c(N)nc(NCCCN3CC(C(F)(F)F)C3)nc2n1 [Example 190]	100 to 3000	10 to 100		
CN1CCC(Nc2nc(N)c3cc(-c4cn(C)cn4)cnc3n2)CC1 [Example 644]	0 to 100	> 100		
Cc1cc(C)c2c(N)nc(NCCCN(C)c3ccccc3)nc2n1 [Example 147]	0 to 100	> 31.6		
Cc1c2c(nc3nc(NC4CCNCC4)nc(NCCO)c13)CCC2 [Example 510, 2-((5-methyl-2-(piperidin-4-ylamino)-7,8-dihydro-6H-cyclopenta[5,6]pyrido[2,3-d]pyrimidin-4-yl)amino)ethan-1-ol]	100 to 3000	0.1 to 1		
CN1CCC(Nc2nc(N)c3cc(C(=O)O)cnc3n2)CC1 [Example 287]	0 to 100	> 100		
Cc1cc(C)c2c(N)nc(NC34CNCC3C4)nc2n1 (single isomer, unassigned) [Example 260, N^2-(3-azabicyclo[3.1.0]hexan-1-yl)-5,7-dimethylpyrido[2,3-d]pyrimidine-2,4-diamine]			## (Fold over Ctrl > 1 ≤ 30)	+++ (pC100% > 6.0 ≤ 7.0)
CN1CCC(Nc2nc(N)c3ccc(-c4ccccc4N)nc3n2)CC1 [Example 113]	100 to 3000	10 to 100		
Cc1cc(C)c2c(NCCO)nc(NC3CCN(C)CC3)nc2n1 [Example 273]		1 to 10		
Cc1nc2nc(NC3CCN(C)CC3)nc(N)c2c2ccccc12 [Example 9, 6-methyl-N^3-(1-methylpiperidin-4-yl)pyrimido[4,5-c]isoquinoline-1,3-diamine]	100 to 3000	1 to 10		
CN1CCC(Nc2nc(N)c3ccc(-c4ccc(C(F)(F)F)cc4)nc3n2)CC1 [Example 66]	0 to 100	> 100		
CNc1cc(N[C@H]2CN(C)C[C@H]2OC)nc2nc3c(c(C)c12)CCC3 [Example 424]	100 to 3000	0.1 to 1		
CN1CCC(Nc2nc(N)c3c4c(cnc3n2)CCC4)CC1 [Example 274]		1 to 10		
Cc1cc(C)c2c(N)nc(NCCCN3CCC4(CCOCC4)C3)nc2n1 [Example 189]	0 to 100	> 31.6		
CNc1ccc(-c2ccc3c(N)nc(NC4CCN(C)CC4)nc3n2)cc1 [Example 53]	100 to 3000	1 to 10		
CNc1nc(NC2C3CNC2C3)nc2nc(C)cc(C)c12 (single isomer, unassigned) [Example 446]				++ (pC100% > 5.0 ≤ 6.0)

Structure (SMILES)	Emax [%]	EC (100% of 200 uM G418 response) [µM]	Fold Over Control	pC100%
CNc1nc(N[C@@H]2CN[C@H](C)C2)nc2nc(C)cc(C)c12 [Example 372]	100 to 3000	10 to 100		
CC(C)c1ccnc2nc(NC3CCN(C)CC3)nc(N)c12 [Example 246, 5-isopropyl-N^2-(1-methylpiperidin-4-yl)pyrido[2,3-d]pyrimidine-2,4-diamine]	0 to 100	> 100		
CNc1nc(N[C@H]2CN(C)C[C@@H]2OC(=O)C(C)C)nc2nc3c(c(C)c12)CCC3 [Example 684, (3S,4S)-1-methyl-4-((5-methyl-4-(methylamino)-7,8-dihydro-6H-cyclopenta[5,6]pyrido[2,3-d]pyrimidin-2-yl)amino)pyrrolidin-3-yl isobutyrate]	100 to 3000	0.1 to 1		
Cc1cc(C)c2c(N)nc(N[C@H]3CN[C@@H](C)C3)nc2n1 [Example 350]	100 to 3000	1 to 10		
CNc1nc(NC2CCN(Cc3ccccc3O)CC2)nc2nc(C)cc(C)c12 [Example 579]	100 to 3000	0.1 to 1		
Cc1cc(C)c2c(N)nc(NCCN3CC(F)(F)C3)nc2n1 [Example 169]	0 to 100	> 31.6		
Cc1cc(C)c2c(NC3CC3)nc(NC3CCN(C)CC3)nc2n1 [Example 320]	100 to 3000	1 to 10		
Cc1cc(C)c2c(N)nc(N[C@H]3CN4CCC3CC4)nc2n1 [Example 198]	0 to 100	> 31.6		
CNc1nc(N[C@@H]2CCNC2)nc2nc(C)c(Cl)c(C)c12 [Example 358]	100 to 3000	0.1 to 1		
Cc1cc(C)c2c(N)nc(NC3CCN(Cc4cccnc4)CC3)nc2n1 [Example 504]	100 to 3000	1 to 10		
CN1CCC(Nc2nc(N)c3ccc(Oc4ccccc4)nc3n2)CC1 [Example 32, N^2-(1-methylpiperidin-4-yl)-7-phenoxypyrido[2,3-d]pyrimidine-2,4-diamine]	100 to 3000	10 to 100		
Cc1cc(C)c2c(NCCN)nc(NC3CCN(C)CC3)nc2n1 [Example 315]	0 to 100	> 31.6		
CNc1nc(NC2CNCC2C#N)nc2nc(C)cc(C)c12 (single isomer, unassigned) [Example 453]			## (Fold over Ctrl > 1 ≤ 30)	+ (pC100% > 4.0 ≤ 5.0)
CNc1nc(N[C@H]2CN(C)C[C@@H]2O)nc2nc(C)c(Cl)c(C)c12 [Example 629]		1 to 10		
COCc1cccc(CN2CCC(Nc3nc(N)c4c(C)cc(C)nc4n3)CC2)c1 [Example 464]	100 to 3000	10 to 100		
Cc1ccc(-c2ccc3c(N)nc(NC4CCN(C)CC4)nc3n2)cc1 [Example 101]		1 to 10		
CNc1nc(N[C@H]2CNC[C@@H]2C)nc2nc(C)cc(C)c12 [Example 382]	100 to 3000	1 to 10		
CC(=O)c1cnc2nc(NC3CCN(C)CC3)nc(N)c2c1 [Example 125, 1-{4-amino-2-[(1-methylpiperidin-4-yl)amino]pyrido[2,3-d]pyrimidin-6-yl}ethenone]	0 to 100	> 100		
Cc1cc(C)c2c(N)nc(NC3CCN(Cc4ccccc4C#N)CC3)nc2n1 [Example 500]	100 to 3000	1 to 10		
